Measured values taken from US10206400B2, “Insecticidal compounds based on isoxazoline derivatives” (Syngenta Crop Protection LLC, priority 2009, dated 2019).

Key:
Format in all cases: in vivo
Heliothis virescens = Heliothis virescens (tobacco budworm) egg/artificial diet test; settings: 96 h, 200 ppm (concentration in well 18 ppm), eggs 0-24 h old on artificial diet, 4 days, egg mortality, larval mortality, growth regulation
Method: Eggs (0-24 h old) were placed in 24-well microtiter plate on artificial diet and treated with test solutions at an application rate of 200 ppm (concentration in well 18 ppm) by pipetting. After an incubation period of 4 days, samples were checked for egg mortality, larval mortality, and growth regulation.

Plutella xylostella = Plutella xylostella (diamond back moth) artificial diet test; settings: 144 h, 200 ppm (concentration in well 18 ppm), L2 larvae, 6 days, larval mortality, growth regulation
Method: (§1) 24-well microtiter plate (MTP) with artificial diet was treated with test solutions at an application rate of 200 ppm (concentration in well 18 ppm) by pipetting. After drying, the MTP's were infested with L2 larvae (7-12 per well). After an incubation period of 6 days, samples were checked for larval mortality and growth regulation.

Myzus persicae = Myzus persicae (green peach aphid), systemic test; settings: 144 h, roots of infested pea seedlings in test solution, 6 days, mortality, special effects on the plant
From the text: Myzus persicae (Green peach aphid), systemic test: Roots of pea seedlings, infested with an aphid population of mixed ages, are placed directly in the test solutions at an application rate of 12.5 ppm. 6 days after introduction, samples are checked for mortality and special effects on the plant. The following compounds gave at least 80% control of Myzus persicae: A3, B2, B3, B5, B6, B7, B8, B11, B12, C1, C2, C3,C4, C5, C6, C7, D1, E1, E2, G1, G3, G5, G6, H1, H5, H6, H9, H10, H11, H12, H13, H14, H18, H19, H20, H24, H25, and H26.

Tetranychus urticae = Tetranychus urticae (two-spotted spider mite) leaf disc spray test; settings: foliar, 192 h, 200 ppm spray on bean leaf discs, mixed ages, 8 days, egg, larval and adult mortality
From the text: Bean leaf discs on agar in 24-well microtiter plates were sprayed with test solutions at an application rate of 200 ppm. After drying, the leaf discs are infested with mite populations of mixed ages. 8 days later, discs are checked for egg mortality, larval mortality, and adult mortality.

Spodoptera littoralis = Spodoptera littoralis (Egyptian cotton leafworm) leaf disc spray test; settings: foliar, 72 h, 200 ppm spray on cotton leaf discs, L1 larvae, mortality, feeding behavior, growth regulation 3 days after treatment
From the text: Cotton leaf discs were placed on agar in a 24-well microtiter plate and sprayed with test solutions at an application rate of 200 ppm. After drying, the leaf discs were infested with 5 L1 larvae. The samples were checked for mortality, feeding behavior, and growth regulation 3 days after treatment (DAT).

Diabrotica balteata = Diabrotica balteata (corn root worm) artificial diet test; settings: 120 h, 200 ppm (concentration in well 18 ppm), L2 larvae, 5 days, larval mortality, growth regulation
Method: as §1, with “A 24-well” for “24-well”, “(6-10” for “(7-12”, “5” for “6”

Thrips tabaci = Thrips tabaci (onion thrips) leaf disc spray test; settings: foliar, 168 h, 200 ppm spray on sunflower leaf discs, mixed ages, 7 days, mortality
Method: [The procedure below names another target; the source lists this target under the same test.] Sunflower leaf discs were placed on agar in a 24-well microtiter plate and sprayed with test solutions at an application rate of 200 ppm. After drying, the leaf discs were infested with an […] population of mixed ages. After an incubation period of 7 days, samples were checked for mortality.

CCN1OC[C@@H](NC(=O)c2ccc(C3=NOC(c4cc(Cl)c(F)c(Cl)c4)(C(F)(F)F)C3)cc2C)C1=O (stereo partly drawn) [Compound C3, 4-[5-(3,5-Dichloro-4-fluoro-phenyl)-5-trifluoromethyl-4,5-dihydro-isoxazol-3-yl]-2-methyl-N-((R)-2-ethyl-3-oxo-isoxazolidin-4-yl)-benzamide]
≥ 80%: pest or weed control at 200 ppm (Heliothis virescens) | pest or weed control at 200 ppm (Plutella xylostella) | pest or weed control at 12.5 ppm (Myzus persicae) | pest or weed control at 200 ppm (Tetranychus urticae) | pest or weed control at 200 ppm (Spodoptera littoralis) | pest or weed control at 200 ppm (Diabrotica balteata) | pest or weed control at 200 ppm (Thrips tabaci)

CCN1CC(NC(=O)c2ccc(C3=NOC(c4cc(Cl)cc(Cl)c4)(C(F)(F)F)C3)cc2C)CO1 (stereo not shown) [Compound A3, 4-[5-(3,5-Dichloro-phenyl)-5-trifluoromethyl-4,5-dihydroisoxazol-3-yl]-N-(2-ethyl-isoxazolidin-4-yl)-2-methyl-benzamide]
≥ 80%: pest or weed control at 200 ppm (Heliothis virescens) | pest or weed control at 200 ppm (Plutella xylostella) | pest or weed control at 12.5 ppm (Myzus persicae) | pest or weed control at 200 ppm (Tetranychus urticae) | pest or weed control at 200 ppm (Spodoptera littoralis) | pest or weed control at 200 ppm (Diabrotica balteata) | pest or weed control at 200 ppm (Thrips tabaci)

CCN1OC[C@@H](NC(=O)c2ccc(C3=NOC(c4cc(Cl)c(Cl)c(Cl)c4)(C(F)(F)F)C3)cc2C)C1=O (stereo partly drawn) [Compound C1, 4-[5-(3,4,5-Trichloro-phenyl)-5-trifluoromethyl-4,5-dihydro-isoxazol-3-yl]-2-methyl-N-((R)-2-ethyl-3-oxo-isoxazolidin-4-yl)-benzamide]
≥ 80%: pest or weed control at 200 ppm (Heliothis virescens) | pest or weed control at 200 ppm (Plutella xylostella) | pest or weed control at 12.5 ppm (Myzus persicae) | pest or weed control at 200 ppm (Tetranychus urticae) | pest or weed control at 200 ppm (Spodoptera littoralis) | pest or weed control at 200 ppm (Diabrotica balteata) | pest or weed control at 200 ppm (Thrips tabaci)

CCN1OC[C@@H](NC(=O)c2ccc(C3=NOC(c4cc(F)cc(Cl)c4)(C(F)(F)F)C3)cc2C)C1=O (stereo partly drawn) [Compound C5, 4-[5-(3-chloro-5-fluoro-phenyl)-5-trifluoromethyl-4,5-dihydro-isoxazol-3-yl]-2-methyl-N-((R)-2-ethyl-3-oxo-isoxazolidin-4-yl)-benzamide]
≥ 80%: pest or weed control at 200 ppm (Heliothis virescens) | pest or weed control at 200 ppm (Plutella xylostella) | pest or weed control at 12.5 ppm (Myzus persicae) | pest or weed control at 200 ppm (Tetranychus urticae) | pest or weed control at 200 ppm (Spodoptera littoralis) | pest or weed control at 200 ppm (Diabrotica balteata) | pest or weed control at 200 ppm (Thrips tabaci)

Cc1cc(C2=NOC(c3cc(Cl)cc(Cl)c3)(C(F)(F)F)C2)ccc1C(=O)N[C@@H]1CON(C2COC2)C1=O (stereo partly drawn) [Compound B12, 4-[5-(3,5-Dichloro-phenyl)-5-trifluoromethyl-4,5-dihydro-isoxazol-3-yl]-2-methyl-N-((R)-2-(oxetan-3-yl)-3-oxo-isoxazolidin-4-yl)-benzamide]
≥ 80%: pest or weed control at 200 ppm (Heliothis virescens) | pest or weed control at 200 ppm (Plutella xylostella) | pest or weed control at 12.5 ppm (Myzus persicae) | pest or weed control at 200 ppm (Tetranychus urticae) | pest or weed control at 200 ppm (Spodoptera littoralis) | pest or weed control at 200 ppm (Diabrotica balteata) | pest or weed control at 200 ppm (Thrips tabaci)

Cc1cc(C2=NOC(c3cc(Cl)cc(Cl)c3)(C(F)(F)F)C2)ncc1C(=O)N[C@@H]1CON(CC(F)(F)F)C1=O (stereo partly drawn) [Compound C6, 6-[5-(3,5-Dichloro-phenyl)-5-trifluoromethyl-4,5-dihydro-isoxazol-3-yl]-4-methyl-N— [(R)-3-oxo-2-(2,2,2-trifluoro-ethyl)-isoxazolidin-4-yl]-nicotinamide]
≥ 80%: pest or weed control at 200 ppm (Heliothis virescens) | pest or weed control at 200 ppm (Plutella xylostella) | pest or weed control at 12.5 ppm (Myzus persicae) | pest or weed control at 200 ppm (Tetranychus urticae) | pest or weed control at 200 ppm (Spodoptera littoralis) | pest or weed control at 200 ppm (Diabrotica balteata) | pest or weed control at 200 ppm (Thrips tabaci)

CCCCN1OC[C@@H](NC(=O)c2ccc(C3=NOC(c4cc(Cl)cc(Cl)c4)(C(F)(F)F)C3)cc2C)C1=O (stereo partly drawn) [Compound B8, 4-[5-(3,5-Dichloro-phenyl)-5-trifluoromethyl-4,5-dihydro-isoxazol-3-yl]-2-methyl-N-((R)-2-butyl-3-oxo-isoxazolidin-4-yl)-benzamide]
≥ 80%: pest or weed control at 200 ppm (Heliothis virescens) | pest or weed control at 200 ppm (Plutella xylostella) | pest or weed control at 12.5 ppm (Myzus persicae) | pest or weed control at 200 ppm (Tetranychus urticae) | pest or weed control at 200 ppm (Spodoptera littoralis) | pest or weed control at 200 ppm (Diabrotica balteata) | pest or weed control at 200 ppm (Thrips tabaci)

CCN1OC[C@@H](NC(=O)c2ccc(C3=NOC(c4cc(Cl)cc(Cl)c4)(C(F)(F)F)C3)cc2C)C1=O (stereo partly drawn) [Compound B6, 4-[5-(3,5-Dichloro-phenyl)-5-trifluoromethyl-4,5-dihydro-isoxazol-3-yl]-2-methyl-N-((R)-2-ethyl-3-oxo-isoxazolidin-4-yl)-benzamide]
≥ 80%: pest or weed control at 200 ppm (Heliothis virescens) | pest or weed control at 200 ppm (Plutella xylostella) | pest or weed control at 12.5 ppm (Myzus persicae) | pest or weed control at 200 ppm (Tetranychus urticae) | pest or weed control at 200 ppm (Spodoptera littoralis) | pest or weed control at 200 ppm (Diabrotica balteata) | pest or weed control at 200 ppm (Thrips tabaci)

CCN1CC(CNC(=O)c2ccc(C3=NOC(c4cc(Cl)cc(Cl)c4)(C(F)(F)F)C3)cc2C)CS1(=O)=O (stereo not shown) [Compound D1, 4-[5-(3,5-Dichloro-phenyl)-5-trifluoromethyl-4,5-dihydro-isoxazol-3-yl]-N-(2-ethyl-1,1-dioxo-1lambda*6*-isothiazolidin-4-ylmethyl)-2-methl-benzamide]
≥ 80%: pest or weed control at 200 ppm (Heliothis virescens) | pest or weed control at 200 ppm (Plutella xylostella) | pest or weed control at 12.5 ppm (Myzus persicae) | pest or weed control at 200 ppm (Tetranychus urticae) | pest or weed control at 200 ppm (Spodoptera littoralis) | pest or weed control at 200 ppm (Diabrotica balteata) | pest or weed control at 200 ppm (Thrips tabaci)

Cc1cc(C2=NO[C@@](c3cc(Cl)cc(Cl)c3)(C(F)(F)F)C2)ccc1C(=O)N[C@@H]1CON(CC(F)F)C1=O [Compound G5, 4-[5-(3,5-Dichloro-phenyl)-5-(S)-trifluoromethyl-4,5-dihydro-isoxazol-3-yl]-2-methyl-N—((R)-2-(2,2-difluoroethyl)-3-oxo-isoxazolidin-4-yl)-benzamide]
≥ 80%: pest or weed control at 200 ppm (Heliothis virescens) | pest or weed control at 200 ppm (Plutella xylostella) | pest or weed control at 12.5 ppm (Myzus persicae) | pest or weed control at 200 ppm (Tetranychus urticae) | pest or weed control at 200 ppm (Spodoptera littoralis) | pest or weed control at 200 ppm (Diabrotica balteata) | pest or weed control at 200 ppm (Thrips tabaci)

CCN1OC[C@H](NC(=O)c2ccc(C3=NOC(c4cc(Cl)cc(Cl)c4)(C(F)(F)F)C3)cc2C)C1=O (stereo partly drawn) [Compound E2, 4-[5-(3,5-Dichloro-phenyl)-5-trifluoromethyl-4,5-dihydro-isoxazol-3-yl]-2-methyl-N-((S)-2-ethyl-3-oxo-isoxazolidin-4-yl)-benzamide]
≥ 80%: pest or weed control at 200 ppm (Heliothis virescens) | pest or weed control at 200 ppm (Plutella xylostella) | pest or weed control at 12.5 ppm (Myzus persicae) | pest or weed control at 200 ppm (Tetranychus urticae) | pest or weed control at 200 ppm (Spodoptera littoralis) | pest or weed control at 200 ppm (Diabrotica balteata) | pest or weed control at 200 ppm (Thrips tabaci)

Cc1cc(C2=NOC(c3cc(Cl)cc(Cl)c3)(C(F)(F)F)C2)ccc1C(=O)N[C@H]1CON(C)C1=O (stereo partly drawn) [Compound E1, 4-[5-(3,5-Dichloro-phenyl)-5-trifluoromethyl-4,5-dihydro-isoxazol-3-yl]-2-methyl-N-((S)-2-methyl-3-oxo-isoxazolidin-4-yl)-benzamide]
≥ 80%: pest or weed control at 200 ppm (Heliothis virescens) | pest or weed control at 200 ppm (Plutella xylostella) | pest or weed control at 12.5 ppm (Myzus persicae) | pest or weed control at 200 ppm (Tetranychus urticae) | pest or weed control at 200 ppm (Spodoptera littoralis) | pest or weed control at 200 ppm (Diabrotica balteata) | pest or weed control at 200 ppm (Thrips tabaci)

CCN1OC[C@@H](NC(=O)c2ccc(C3=NOC(c4cc(Cl)c(Br)c(Cl)c4)(C(F)(F)F)C3)cc2C)C1=O (stereo partly drawn) [Compound C2, 4-[5-(3,5-Dichloro-4-bromo-phenyl)-5-trifluoromethyl-4,5-dihydro-isoxazol-3-yl]-2-methyl-N-((R)-2-ethyl-3-oxo-isoxazolidin-4-yl)-benzamide]
≥ 80%: pest or weed control at 200 ppm (Heliothis virescens) | pest or weed control at 200 ppm (Plutella xylostella) | pest or weed control at 12.5 ppm (Myzus persicae) | pest or weed control at 200 ppm (Tetranychus urticae) | pest or weed control at 200 ppm (Spodoptera littoralis) | pest or weed control at 200 ppm (Diabrotica balteata) | pest or weed control at 200 ppm (Thrips tabaci)
